From US20080255206A1, “Rxr Agonists and Antagonists, Alone or in Combination with Ppar Ligands, in the Treatment of Metabolic and Cardiovascular Diseases” (priority 2005, published 2008) come the findings set out here.

In data set [1] the test system is healthy, non-inflamed human skin. In words: Topical application on healthy human skin, clinical pilot trial. Also noted: key to Skin inflammation score (scale 0-4): 0: no signs or symptoms of skin inflammation; 1: slight erythema, desquamation and pruritus; 2: moderate erythema, desquamation and pruritus; 3: marked erythema, desquamation, pruritus/burning; 4: severe erythema, desquamation, pruritus, burning or even pain, edema, exsudation, ulceration. As to conditions: for Irritation or inflammation of the skin: human volunteer, 1% concentration daily to the skin for 2 weeks; for Skin inflammation score (scale 0-4): day 17. Type of data set: in vivo. An excerpt: In a clinical pilot trial on one healthy volunteer compound 15 is applied epicutaneously in a concentration of 1% for its inflammation potential compared to that of the strong inflammation inducing agent 9-cis RA in concentrations of 0.1%, 0.3% and 1%.
The compounds are solved or suspended in ethanol/propylene glycol (1:1). They are applied epicutaneously twice daily, 7 days a week, for two concecutive weeks. The site of application is an area of 3×3=9 cm^2 on the abdominal skin. The volume is 0.1 ml per application.
The following signs and symptoms of skin inflammation are recorded: Erythema, desquamation (scaling), pruritus, burning, pain, exsudation, edema, ulceration. They are classified on a scale of: • 0=no signs or symptoms of skin inflammation • 1=slight erythema, desquamation and pruritus • 2=moderate erythema, desquamation and pruritus • 3=marked erythema, desquamation, pruritus/burning • 4=severe erythema, desquamation, pruritus, burning or even pain, edema, exsudation, ulceration
Treatment period lasts from day 1 to 14, the post-treatment observation period from day 15 to day 28.

The target of a further data set is T1, RXRβ (Homo sapiens, UniProt P28702).
T1 construct: Full length RXR cDNA is used for transfection; expressed in transfected cells; host or cells: Schneider SL-3 cells (Drosophila)
T1 sequence (P28702 1-533): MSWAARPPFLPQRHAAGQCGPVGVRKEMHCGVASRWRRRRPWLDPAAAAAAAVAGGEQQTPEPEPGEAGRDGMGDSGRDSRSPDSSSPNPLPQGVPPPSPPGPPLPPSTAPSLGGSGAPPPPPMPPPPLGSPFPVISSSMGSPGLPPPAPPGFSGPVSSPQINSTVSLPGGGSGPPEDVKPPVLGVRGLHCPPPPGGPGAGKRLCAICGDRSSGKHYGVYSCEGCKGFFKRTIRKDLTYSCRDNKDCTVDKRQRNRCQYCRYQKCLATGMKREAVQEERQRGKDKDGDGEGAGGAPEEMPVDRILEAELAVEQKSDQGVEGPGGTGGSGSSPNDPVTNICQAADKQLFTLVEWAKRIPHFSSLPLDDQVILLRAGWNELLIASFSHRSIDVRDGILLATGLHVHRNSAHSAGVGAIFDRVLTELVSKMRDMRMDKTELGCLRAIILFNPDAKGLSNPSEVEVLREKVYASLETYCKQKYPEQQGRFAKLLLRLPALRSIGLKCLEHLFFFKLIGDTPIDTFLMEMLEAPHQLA
Description: Retinoid activation assay, RXRβ (Schneider SL-3 cells, luciferase reporter). In kind it is cell-based. Particulars: read-out: Activation EC50 RXR β. On the procedure:
Full length RXR cDNA is used for transfection. As reporter system, the luciferase gene is used in a construct with three copies of a RXR response element from rat CRBP gene, (formerly RARE from betaRAR gene), fused to alcoholdehydrogenase gene promoter in the plasmid pGL2-basic. Schneider SL-3 cells from Drosophila are transiently transfected 3-4 h before the experiment by the Ca-phosphate-DNA coprecipitation method. […] At the end of the incubation, the cell supernatants are assayed for luciferase activity. Results are given as EC50 (nM), the concentration leading to half-maximal activation.
Background: In a reporter assay the amount or activity of a reporter protein is the signal.

The next data set deals with T2, RARα (Homo sapiens, UniProt P10276).
T2 sequence (P10276 183-417 limits assumed): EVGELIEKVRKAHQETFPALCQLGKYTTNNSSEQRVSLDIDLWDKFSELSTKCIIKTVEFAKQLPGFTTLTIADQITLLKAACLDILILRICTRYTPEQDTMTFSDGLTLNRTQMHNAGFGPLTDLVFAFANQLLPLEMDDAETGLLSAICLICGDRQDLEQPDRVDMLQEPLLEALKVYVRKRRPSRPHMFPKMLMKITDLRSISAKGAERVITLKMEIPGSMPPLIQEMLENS
Description: Retinoid activation assay, RARα (COS-1 cells, SeAP reporter). Type of data set: cell-based. Particulars: read-out: Activation EC50 RAR α. On the procedure:
(§1) Chimeric RAR cDNAs are used for transfection which contain the DNA binding region of the estrogen receptor. As reporter system, the SeAp (secreted alkaline phosphatase) gene under control of the vitellogenin estrogen response element fused to the herpes simplex thymidinkinase promoter (vit-TK-SeAP) is used. The galactosidase expression vector pCH110 serves to correct for variation in transfection efficiency. […] At the end of the incubation, the cell supernatants are assayed for SeAP activity. Results are given as EC50 (nM), the concentration leading to half-maximal activation.

A further data set has as its target T3, RARβ (Homo sapiens, UniProt P10826).
T3 sequence (P10826 183-417 limits assumed): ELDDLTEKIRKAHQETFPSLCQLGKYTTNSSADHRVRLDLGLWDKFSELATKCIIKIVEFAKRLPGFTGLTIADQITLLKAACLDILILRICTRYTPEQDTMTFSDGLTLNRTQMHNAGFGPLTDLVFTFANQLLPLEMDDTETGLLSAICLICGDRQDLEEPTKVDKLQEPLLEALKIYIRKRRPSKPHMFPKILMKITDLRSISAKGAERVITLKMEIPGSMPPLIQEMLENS
Description: Retinoid activation assay, RARβ (COS-1 cells, SeAP reporter). Type of data set: cell-based. Particulars: read-out: Activation EC50 RAR β. The protocol:
as §1

On to `CC1=C(/C=C/C2=C(/C=C/C(C)=C/C(=O)O)CCCCC2)C(C)(C)CCC1` [Compound 1, (2E,4E)-3-methyl-5-[2-[(E)-2-(2,6,6-trimethyl-1-cyclohexen-1-yl)ethenyl]-1-cyclohepten-1-yl]-2,4-pentadienoic acid], for which the “Irritation or inflammation of the skin” value in data set [1] is recorded as “does not induce any irritation or inflammation of the skin”.

`CC(/C=C/C1=C(c2ccc3c(c2)C(C)(C)CCC3(C)C)CCCC1)=C\C(=O)O` [Compound 6, (2E,4E)-3-Methyl-5-[2-(5,5,8,8-tetramethyl-5,6,7,8-tetrahydro-naphthalen-2-yl)-cyclohex-1-enyl]-penta-2,4-dienoic acid]: the concentration giving a half-maximal response (EC50) (usually the midpoint of the concentration-response curve) on RXRβ came out at 1850 nM.

Turning to `CCCCOc1c(\C(C)=C/C=C/C(C)=C/C(=O)O)cc(C(C)(C)C)cc1C(C)(C)C` [Compound 15, (2E,4E,6Z)-7-[2-butoxy-3,5-bis(1,1-dimethylethyl)phenyl]-3-methyl-2,4,6-octatrienoic acid], the “Skin inflammation (in words)” value in data set [1] (1% epicutaneously twice daily day 1-14, observation to day 28) is “well tolerated with no skin inflammation”; in data set [1] (1% epicutaneously twice daily day 1-14, observation to day 28, listed as Compound A) it was “does not induce any objective or subjective symptoms”. Moreover, the “Irritation or inflammation of the skin” value in data set [1] was “does not induce any irritation or inflammation of the skin”.

Turning to `C/C(=C/C=C/C(C)=C/C(=O)O)c1cc2c(cc1C)C(C)(C)CCCC2` [Compound 13, (2E,4E,6Z)-3-Methyl-7-(3,5,5,-trimethyl-6,7,8,9-tetrahydro-5H-benzocyclohepten-2-yl)-octa-2,4,6-trienoic acid], the EC50 on RXRβ is 77 nM.

As to `CC(/C=C/c1ccccc1-c1ccc2c(c1)C(C)(C)CCC2(C)C)=C\C(=O)O` [Compound 7, (2E,4E)-3-methyl-5-[2-(5,5,8,8-tetramethyl-5,6,7,8-tetrahydro-naphthalen-2-yl)-phenyl]-penta-2,4-dienoic acid], on RXRβ, the EC50 amounted to 330 nM.

For `CC(/C=C/C1=C(c2ccc3c(c2)C(C)(C)CCC3(C)C)CCC1)=C\C(=O)O` [Compound 12, (2E,4E)-3-Methyl-5-[2-(5,5,8,8-tetramethyl-5,6,7,8-tetrahydro-naphthalen-2-yl)-cyclopent-1-enyl]-penta-2,4-dienoic acid], the figures for the 50% effective concentration (EC50) at RARα, on RARβ and at RXRβ were 370 nM, 84 nM and 60 nM, respectively.

For the molecule `CC1=C(/C=C/C2=C(/C=C/C(C)=C/C(=O)O)CCC2)C(C)(C)CCC1` [Compound 14, (2E,4E)-3-Methyl-5-[2-[(E)-2-(2,6,6-trimethyl-1-cyclohexen-1-yl)ethenyl]-1-cyclopenten-1-yl]-2,4-pentadienoic acid], the figures for the EC50 on RARα, on RARβ and at RXRβ were 150 nM, 90 nM and 270 nM, respectively.

As to `CCC1(CC)CCC(C)(C)c2cc(\C(C)=C/C=C/C(C)=C/C(=O)O)ccc21` [Compound 24, (2E,4E,6Z)-7-(5,5-Diethyl-8,8-dimethyl-5,6,7,8-tetrahydro-naphthalen-2-yl)-3-methyl-octa-2,4,6-trienoic acid], the concentration giving a half-maximal response (EC50) on RARα was 54 nM; at RARβ it was 9.9 nM; at RXRβ, no less than 10000 nM.

For the molecule `CC(/C=C/c1sccc1-c1ccc2c(c1)C(C)(C)CCC2(C)C)=C\C(=O)O` [Compound 9], the EC50 at RARα worked out at 2300 nM; on RARβ it was 360 nM.

In the case of `CC1=C(C#CC2=C(/C=C/C(C)=C/C(=O)O)CCCCC2)C(C)(C)CCC1` [Compound 18], the EC50 at RXRβ was no less than 10000 nM.

In the case of `CC1=C(/C=C/C(C)=C\C=C\C(C)=C\C(=O)O)C(C)(C)CCC1` [9-cis RA, 9-cis retinoic acid, reference compound], the “Skin inflammation score (scale 0-4)” value is 1 in data set [1] (0.1% epicutaneously twice daily day 1-14), 2 in data set [1] (0.3% epicutaneously twice daily day 1-14) and 3 in data set [1] (1% epicutaneously twice daily day 1-14). The “Skin inflammation (in words)” value in data set [1] (0.1% epicutaneously twice daily, days 12, 13 and 14) was “moderate inflammation”; in data set [1] (0.3% epicutaneously twice daily, days 12, 13 and 14), “moderate inflammation”; in data set [1] (1.0% epicutaneously twice daily, days 12, 13 and 14), “marked inflammation”.

As to `CC(/C=C/[C@@H]1C[C@@H]1c1ccc2c(c1)C(C)(C)CCC2(C)C)=C\C(=O)O` (racemic) [Compound 4, (2E,4E)-3-methyl-5-[(1RS,2RS)-2-(5,5,8,8-tetramethyl-5,6,7,8-tetrahydro-naphthalen-2-yl)-cyclopropyl]-penta-2,4-dienoic acid], the EC50 on RARβ was 1200 nM.

For `CC1=C(/C=C/c2sccc2/C=C/C(C)=C/C(=O)O)C(C)(C)CCC1` [Compound 5, (2E,4E)-3-Methyl-5-[2-[(E)-2-(2,6,6-trimethyl-1-cyclohexen-1-yl)ethenyl]-3-thienyl]-2,4-pentadienoic acid], the figures for the EC50 at RARα, on RARβ and at RXRβ were 170 nM, 85 nM and 50 nM, respectively.
